Measured values reported in US11459312B2, “Sulphur substituted 3-oxo-2,3-dihydropyridazine-4-carboxamides” (Bayer Aktiengesellschaft, priority 2017, dated 2022).

Assays:
AHR [1] = biological target: T1, AHR (Homo sapiens, UniProt P35869); assay: In vitro assay 3: AHR-regulated CYP1A1 expression in human cell line (U937, quantitative PCR); format: cell-based; conditions: human monocytic U937 cells, CYP1A1 expression induced with 200 μM KA, 6 hours, qPCR; read-out: Assay 3: Hum CYP1A1 Antagonism IC50
T1 sequence (P35869 11-848): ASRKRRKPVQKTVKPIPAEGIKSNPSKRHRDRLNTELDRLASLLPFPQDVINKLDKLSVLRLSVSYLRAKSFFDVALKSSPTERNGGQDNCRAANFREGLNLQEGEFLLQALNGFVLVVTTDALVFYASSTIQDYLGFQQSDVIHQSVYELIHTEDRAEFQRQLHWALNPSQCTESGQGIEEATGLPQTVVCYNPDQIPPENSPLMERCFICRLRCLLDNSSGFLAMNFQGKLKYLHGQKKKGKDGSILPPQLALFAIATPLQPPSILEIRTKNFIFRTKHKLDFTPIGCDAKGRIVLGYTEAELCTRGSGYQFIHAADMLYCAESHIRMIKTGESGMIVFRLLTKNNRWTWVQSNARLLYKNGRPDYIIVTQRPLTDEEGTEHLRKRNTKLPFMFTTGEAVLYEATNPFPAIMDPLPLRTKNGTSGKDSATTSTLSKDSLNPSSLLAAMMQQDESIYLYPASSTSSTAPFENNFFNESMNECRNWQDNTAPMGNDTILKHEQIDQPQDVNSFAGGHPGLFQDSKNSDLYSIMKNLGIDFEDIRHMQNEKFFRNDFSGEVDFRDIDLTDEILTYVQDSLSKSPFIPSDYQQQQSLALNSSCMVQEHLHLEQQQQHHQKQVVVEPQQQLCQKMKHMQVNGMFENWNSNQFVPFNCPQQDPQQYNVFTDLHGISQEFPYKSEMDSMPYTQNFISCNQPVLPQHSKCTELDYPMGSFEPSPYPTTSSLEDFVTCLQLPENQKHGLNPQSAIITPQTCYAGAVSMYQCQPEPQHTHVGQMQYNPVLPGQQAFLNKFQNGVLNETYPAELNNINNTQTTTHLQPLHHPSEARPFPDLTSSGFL
Description: In Vitro Assay 3: AHR-Regulated CYP1A1 Expression in Human Cell Line
To assess the AHR inhibitory activity of the substances described in this application, the ability thereof to antagonize ligand-induced AHR gene regulation in a dose-dependent manner was quantified. For this purpose, quantitative PCR analysis was used to determine expression of the AHR-regulated gene CYP1A1 in a human monocytic U937 cell line upon stimulation with 200 μM KA in the presence and absence of AHR inhibitor. U937 cells were sown at a concentration of 2×10^5 cells/well in 100 μl of growth medium (RPMI 1640, 20% FCS) in 96-well microtitre plates. CYP1A1 expression was induced with 200 μM KA (positive control) in the presence or absence of the substances for 6 hours. Human U937 cells were typically incubated with eight different concentrations of the substances (1 nM, 3 nM, 10 nM, 30 nM, 100 nM, 300 nM, 1 μM and 3 μM) and analyzed in duplicate on the same microtitre plate. After stimulation, cells were lysed with Nucleic Acid Lysis Solution (#4305895, Applied Biosystems) and RNA was isolated using the 6100 Nucleic Acid Preparation Station (Applied Biosystems) and reverse-transcribed to cDNA using SuperScript VILO cDNA synthesis kit (#11754-250, Invitrogen). Unstimulated cells were used as the negative control. Taqman probes for human CYP1A1 (Hs01054797_g1) and human HPRT (Hs02800695_m1) were used to analyze fold expression of CYP1A1 of HPRT. Quantitation was performed on a Taqman SDS7900HT.

AHR [2] = biological target: T1, AHR; assay: In vitro assay 1: AHR-luc transactivation assay, antagonism in human cell line (U87 glioblastoma cells, kynurenic acid prestimulated); format: cell-based; set-up: U87 glioblastoma cells (ATCC) endogenously expressing AHR; host or cells: U87 glioblastoma cells, stably transfected with DRE-firefly luciferase and renilla reporter constructs only; conditions: firefly luciferase DRE reporter, 150 μM kynurenic acid, 20 hours, read-out: Assay 1: AHR-luc Hum Antagonism IC50
Description: Transactivation Assay in Human Cell Line (In Vitro Assays 1 and 2)
Transactivation assays were carried out in U87 glioblastoma cells (ATCC) endogenously expressing AHR. In addition the cells were stably transfected with an AHR inducible firefly luciferase reporter gene construct that carried AHR-binding sites (DRE) in its promoter and a renilla reporter gene construct with constitutively active promoter. Kynurenic acid is an endogenous AHR activating ligand and was used to prestimulate test cells prior to testing the antagonistic properties of compounds.
In Vitro Assay 1: Antagonism in Human Cell Line
Cells in medium (tryptophan free RPMI, 1% FCS, 2 mM Glutamine) supplemented with 150 μM kynurenic acid were grown for 20 hours in absence (negative control) or presence of increasing concentrations of test compounds (typical dilutions: […], 0.25 nmol/L, 0.89 nmol/L; 3.1 nmol/L, 11 nmol/L, 38 nmol/L, 130 nmol/L, 470 nmol/L, 1.6 μmol/L, 5.7 μmol/L and 20 μmol/L in duplicates). As positive inhibition control cells supplemented with 150 μM kynurenic acid were incubated in presence of 5 μM Staurosporin. Normalization was done by positive and negative controls.
Firefly luciferase and Renilla activity was determined by the DualGlo Luciferase Assay System (Promega, #2920). Renilla activity was used to assess toxic effects of compounds.

Compound	IC50 (AHR [1]) [nM]	IC50 (AHR [2]) [nM]
C[C@@H](C[S+](C)[O-])NC(=O)c1cc(-c2ccc(C(F)(F)F)cc2)nn(-c2cnn(C)c2)c1=O (single isomer, unassigned) [Example 24]	7.56	7.54
O=C(N[C@@H]1CS(=O)(=O)C[C@@H]1O)c1cc(-c2ccc(C(F)(F)F)cc2)nn(-c2cccc(F)c2)c1=O (single isomer, unassigned) [Example 15, (−)-2-(3-fluorophenyl)-N-[(cis)-4-hydroxy-1,1-dioxidotetrahydro-thiophen-3-yl]-3-oxo-6-[4-(trifluoromethyl)phenyl]-2,3-dihydropyridazine-4-carboxamide]	36.9	17.7
O=C(N[C@@H]1CS(=O)(=O)C[C@@H]1O)c1cc(-c2ccc(C(F)(F)F)cc2)nn(-c2cccc(F)c2)c1=O (relative stereo) [Example 13, 2-(3-fluorophenyl)-N-[(cis)-4-hydroxy-1,1-dioxidotetrahydro-thiophen-3-yl]-3-oxo-6-[4-(trifluoromethyl)phenyl]-2,3-dihydropyridazine-4-carboxamide]	18.6	5.65
O=C(N[C@@H]1CS(=O)(=O)C[C@@H]1O)c1cc(-c2ccc(C(F)(F)F)cc2)nn(-c2cccnc2)c1=O (single isomer, unassigned) [Example 17, (+)-N-[(cis)-4-hydroxy-1,1-dioxidotetrahydro-thiophen-3-yl]-3-oxo-2-(pyridin-3-yl)-6-[4-(trifluoromethyl)phenyl]-2,3-dihydropyridazine-4-carboxamide]	–	16.2
O=C(N[C@@H]1CS(=O)(=O)C[C@@H]1O)c1cc(-c2ccc(C(F)(F)F)nc2)nn(-c2cccc(F)c2)c1=O (single isomer, unassigned) [Example 20, (+)-2-(3-fluorophenyl)-N-[(cis)-4-hydroxy-1,1-dioxidotetrahydro-thiophen-3-yl]-3-oxo-6-[6-(trifluoromethyl)pyridin-3-yl]-2,3-dihydropyridazine-4-carboxamide]	–	54.3
O=C(N[C@@H]1CS(=O)(=O)C[C@@H]1O)c1cc(-c2ccc(C(F)(F)F)cc2)nn(-c2cnsc2)c1=O (relative stereo) [Example 10, N-[(cis)-4-hydroxy-1,1-dioxidotetrahydro-thiophen-3-yl]-3-oxo-2-(1,2-thiazol-4-yl)-6-[4-(trifluoromethyl)phenyl]-2,3-dihydropyridazine-4-carboxamdie]	–	2.41
O=C(N[C@@H]1CS(=O)(=O)C[C@@H]1O)c1cc(-c2ccc(C(F)(F)F)nc2)nn(-c2cccc(F)c2)c1=O (relative stereo) [Example 19, 2-(3-fluorophenyl)-N-[(cis)-4-hydroxy-1,1-dioxidotetrahydro-thiophen-3-yl]-3-oxo-6-[6-(trifluoromethyl)pyridin-3-yl]-2,3-dihydropyridazine-4-carboxamide]	–	69.9

Continued, values first:

IC50 (AHR [1]) [nM]	IC50 (AHR [2]) [nM]	Compound
17.1	5.77	O=C(N[C@H]1CS(=O)(=O)C[C@H]1O)c1cc(-c2ccc(Cl)cc2)nn(-c2cccc(F)c2)c1=O (single isomer, unassigned) [Example 57, 6-(4-Chlorophenyl)-2-(3-fluorophenyl)-N-[(cis)-4-hydroxy-1,1-dioxidotetrahydrothiophen-3-yl]-3-oxo-2,3-di hydropyridazine-4-carboxamide]
29.9	15.5	CSC[C@H](C)NC(=O)c1cc(-c2ccc(Cl)cc2)nn(-c2cnn(C)c2)c1=O [Example 48, 6-(4-Chlorophenyl)-2-(1-methyl-1H-pyrazol-4-yl)-N-[(2S)-1-(methylsulfanyl)propan-2-yl]-3-oxo-2,3-dihydropyridazine-4-carboxamide]
27	26.5	O=C(N[C@H]1CS(=O)(=O)C[C@H]1O)c1cc(-c2ccc(Cl)cc2)nn(-c2cccc(F)c2)c1=O (racemic) [Example 55, 6-(4-Chlorophenyl)-2-(3-fluorophenyl)-N-[(cis)-4-hydroxy-1,1-dioxidotetrahydrothiophen-3-yl]-3-oxo-2,3-dihydropyridazine-4-carboxamide]
756	56.9	N=S1(=O)C[C@H](O)[C@H](NC(=O)c2cc(-c3ccc(Cl)cc3)nn(-c3cccc(F)c3)c2=O)C1 (single isomer, unassigned) [Example 45, 6-(4-chlorophenyl)-2-(3-fluorophenyl)-N-[(cis)-4-hydroxy-1-imino-1-oxidotetrahydro-1H-1lambda4-thiophen-3-yl]-3-oxo-2,3-dihydropyridazine-4-carboxamide]
43.7	30.5	C[C@@H](CS(C)(=O)=O)NC(=O)c1cc(-c2ccc(Cl)cc2)nn(-c2cnn(C)c2)c1=O [Example 50, 6-(4-Chlorophenyl)-2-(1-methyl-1H-pyrazol-4-yl)-N-[(2S)-1-(methylsulfonyl)propan-2-yl]-3-oxo-2,3-di hydropyridazine-4-carboxamide]
–	65.3	O=C(N[C@H]1CS(=O)(=O)C[C@H]1O)c1cc(-c2ccc(Cl)cc2)nn(-c2cccc(F)c2)c1=O (single isomer, unassigned) [Example 56, 6-(4-Chlorophenyl)-2-(3-fluorophenyl)-N-[(cis)-4-hydroxy-1,1-dioxidotetrahydrothiophen-3-yl]-3-oxo-2,3-dihydropyridazine-4-carboxamide]
–	54.8	C[C@@H](CS(C)(=N)=O)NC(=O)c1cc(-c2ccc(C(F)(F)F)cc2)nn(-c2cnn(C)c2)c1=O (mixture of isomers) [Example 38, 2-(1-Methyl-1H-pyrazol-4-yl)-N-[(2S)-1-(S-methylsulfonimidoyl)propan-2-yl]-3-oxo-6-[4-(trifluoromethyl)phenyl]-2,3-dihydropyridazine-4-carboxamide]
–	103	N=S1(=O)C[C@H](O)[C@H](NC(=O)c2cc(-c3ccc(Cl)cc3)nn(-c3cccc(F)c3)c2=O)C1 (single isomer, unassigned) [Example 46, 6-(4-chlorophenyl)-2-(3-fluorophenyl)-N-[(cis)-4-hydroxy-1-imino-1-oxidotetrahydro-1H-1lambda4-thiophen-3-yl]-3-oxo-2,3-dihydropyridazine-4-carboxamide]
